Results: US20230136075A1, “TREATMENT FOR SEPSIS-INDUCED ORGAN DYSFUNCTION” (The Florey Institute of Neuroscience and Mental Health, priority 2020, published 2023)
Read-outs that look alike come from different tables or passages of the source.

Legend:
[1] = test system: ovine sepsis induced by intravenous infusion of live E. coli; assay: Vitamin C dose response in ovine sepsis (Example 3); format: in vivo
Method: The inventors then sought to determine the minimum dose of intravenous vitamin C required to reverse the pathophysiological features of sepsis and acute kidney injury, using the ovine sepsis model described in Example 1. Surgical procedures and initiation of gram negative sepsis were as described in Example 1.
At 24 hours of sepsis, sheep were randomised into one of four groups (n=2 each): (i) sodium ascorbate treatment at 1 g/kg for 7 hours; (ii) sodium ascorbate treatment at 2 g/kg for 7 hours; (iii) sodium ascorbate treatment at 3 g/kg for 7 hours; or (iv) fluid-matched vehicle. Norepinephrine doses were titrated to achieve a target blood pressure (75-80 mm Hg). All sodium ascorbate doses were given as a bolus followed by a continuous infusion. The bolus doses for the 1, 2 and […] treatments were, respectively, 0.133, 0.267 and 0.4 g/kg (5.3, 10.7 and 16 g for a 40 kg sheep. Sodium ascorbate was diluted in 1:1 ratio with 5% glucose prior to intravenous administration. At 31 hours of sepsis, animals were euthanised for tissue collection to facilitate molecular and histological investigations.

[2] = test system: ovine sepsis induced by intravenous infusion of live E. coli
From the text: Using this model, the inventors have investigated the effect of mega dose intravenous vitamin C therapy on various parameters indicative of the progression of sepsis in sheep (Merino ewes, 35-45 kg; 1.5-2.0 years old). Sheep were divided into two groups, a vitamin C (sodium ascorbate) therapy group and a vehicle group as a control. Experimental protocols were approved by the Animal Ethics Committee of the Florey Institute of Neuroscience and Mental Health under guidelines of the National Health and Medical Research Council of Australia.
Preparatory surgical procedures were carried out as described in Lankadeva et al. (2018b). Briefly, two preparatory surgical procedures were performed under general anaesthesia. First, a carotid artery was exteriorised into a skin fold to form a carotid arterial loop to facilitate cannulation for measurement of arterial pressure and heart rate, and for blood sampling. During the same surgical procedure, a flow probe was placed around the pulmonary artery to measure cardiac output. Animals were allowed 3-4 weeks of recovery. Second, a flow probe was implanted around a renal artery to measure renal blood flow, a renal vein was cannulated for blood sampling and fibre optic probes were inserted into the renal cortex, renal medulla (within kidneys) and parietal cortex (brain) to measure tissue perfusion, oxygen tension and temperature.
During the second surgical procedure cannulae were implanted in the carotid artery for arterial pressure measurement and blood sampling and the jugular vein for infusion of fluids, vasopressors, Escherichia coli, sodium ascorbate and blood sampling, and a Foley catheter was inserted into the bladder to collect urine and monitor hourly urine output.
Following three days of recovery from the second surgical procedure, the experimental protocol (see FIG. 1) was initiated in conscious sheep, to avoid the confounding effects of general anaesthesia. Animals daily food and water intake and urine output was measured on a 24-hour basis during the course of the 5-day protocol.
First, a 24-hour baseline period was commenced, which included measurement of systemic haemodynamics, renal and brain perfusion and oxygenation, arterial, central venous and renal venous blood gases and lactate, and urine output. Arterial blood and urine samples were collected at set times during the experimental period.
After establishment of the 24-hour baseline period, gram-negative sepsis was induced by intravenous infusion of live E. coli (isolated from a patient with sepsis at Austin Health) as described in Lankadeva et al. (2018b), administered as a loading (bolus) infusion of 2.8×10^9 colony-forming units (CFU) over 30-minutes followed by a continuous infusion of 1.26×10^9 CFU/h for 30.5 hours. No prophylactic antibiotics, sedative or analgesic agents were administered during this protocol. The description in the following paragraphs is with reference to the protocol as shown schematically in FIG. 1.
At 23 hours of sepsis, when sheep had fulfilled the clinical criteria for sepsis (i.e. established hypotension, tachycardia, fever, lung injury, tachypnoea, hyperlactatemia and stage 1-2 acute kidney injury) animals were resuscitated with 30 mL/kg balanced crystalloid sodium lactate (Hartmann's solution infused at approximately 2500 ml/hr) for 30 mins, from 23-23.5 hours of sepsis.
A blocked randomization design was used to allocate sheep to treatment with sodium ascorbate or vehicle.

[3] = 1, 2 and 3 g/kg sodium ascorbate compared, n=2 each
[4] = 3 g/kg sodium ascorbate for 7 hours, n=2
[5] = sodium ascorbate infusion, 24-31 hr of sepsis
[6] = sodium ascorbate infusion, 24-31 hr of sepsis, maintained for the following 2 days

Which results are given for `O=C1O[C@H]([C@@H](O)CO)C([O-])=C1O.[Na+]` [sodium ascorbate]?
increase in urinary output [1, 3]: greatest in the 3 g/kg sodium ascorbate treatment group; normalisation of body temperature [1, 3]: strongest in the 3 g/kg sodium ascorbate treatment group; recovery in arterial PO2 [1, 3]: strongest in the 3 g/kg sodium ascorbate treatment group; reduction in arterial blood lactate levels [1, 3]: greatest in the 3 g/kg sodium ascorbate treatment group; norepinephrine dose requirements ([1]; 1, 2 and 3 g/kg sodium ascorbate for 7 hours, n=2 each): reduction in norepinephrine dose requirements with increased sodium ascorbate doses; renal medullary oxygen levels [1, 4]: improvement; vasopressor requirements for attaining target blood pressure (75-80 mm Hg) [1, 4]: Total withdrawal of vasopressor requirements; adverse side-effects ([1]; during these pre-clinical studies): No adverse side-effects were observed; dose required to provide optimal benefits towards reversing the pathophysiological features of sepsis ([1]; intravenous, based on dose response analysis and Examples 1 and 2): at least 3 g/kg; clinical state of septic sheep ([2]; after infusion of sodium ascorbate for 3 hours, 0.5 g/kg bolus then 0.5 g/kg/hr iv, n=5): dramatically improved; renal histology: acute tubular necrosis or interstitial fibrosis in renal cortex, corticomedullary junction or medulla ([2]; at 48 hours of recovery): no acute tubular necrosis or interstitial fibrosis; dose of norepinephrine required to maintain mean arterial pressure ([2]; by 4 hours of sodium ascorbate infusion, n=5): not required in four of five sheep; body temperature ([2]; during sodium ascorbate therapy, 24-31 hr of sepsis, septic fever 41.4±0.2): ~39 °C; arterial blood potassium (hypokalemia) ([2]; infusion of sodium ascorbate): 3.14 ± 0.16 mmol/L; arterial blood sodium (hypernatremia) ([2]; infusion of sodium ascorbate): 153.6 ± 1.7 mmol/L; ischemia and hypoxia in the brain ([2]; sodium ascorbate 3.75 g/kg intravenous): a reversal of ischemia and hypoxia in the brain; arterial blood pH [2, 5]: no effects; cardiac output [2, 5]: significant, progressive decreases; creatinine clearance [2, 5]: significantly increased; fraction excretion of potassium [2, 5]: did not alter; fractional excretion of sodium [2, 5]: significantly increased; heart rate [2, 5]: significant, progressive decreases; partial pressure of carbon dioxide [2, 5]: no effects; plasma creatinine [2, 5]: corrected the increased plasma creatinine to below baseline levels; renal blood flow [2, 5]: decreased toward healthy levels; renal cortical tissue PO2 [2, 5]: Neither fluid bolus therapy, sodium ascorbate, nor norepinephrine had significant effects; renal vascular conductance [2, 5]: decreased toward healthy levels; level of peripheral vasoconstriction ([2]; sodium ascorbate infusion, 24-31 hr of sepsis, despite reduced norepinephrine dose): increased; renal medullary PO2 [2, 6]: increased further throughout the infusion; renal medullary perfusion [2, 6]: improved toward preseptic levels; arterial lactate ([2]; sodium ascorbate infusion, 2.0±0.2 mmol/L at 23 hours of sepsis): significant, progressive reduction; arterial PO2 ([2]; sodium ascorbate infusion, 80±3 at 23 hours of sepsis): 96.5±3.4 mm Hg; increase in plasma aspartate aminotransferase during sepsis ([2]; sodium ascorbate treatment): significantly reduced; increase in plasma bilirubin during sepsis ([2]; sodium ascorbate treatment): significantly reduced; urine flow ([2]; the 2 days following sodium ascorbate infusion): remained at normal baseline levels; urine flow ([2]; within 30 minutes of sodium ascorbate infusion, remained high throughout the infusion): greater than 10 mL/kg/hr
